Source: PubChem BioAssay (NCI)
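Briefly, cells in 96-well plates were exposed to five compound concentrations for 48 h, and endpoints were estimated by linear interpolation. GI50 = concentration required for 50% inhibition of growth. TGI marks complete inhibition of growth.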

Legend:
Assay in all cases: NCI anticancer screen, dose series, 48 h
[1] = system: SK-OV-3 ovarian
[2] = system: HOP-62 NSCLC
[3] = system: HS 578T breast
[4] = system: MDA-MB-435
[5] = system: CAKI-1 renal
[6] = system: OVCAR-5 ovarian
[7] = system: KM12 colon
[8] = system: SW-620 colon
[9] = system: SF-539 CNS
[10] = system: HCC-2998 colon

Cc1ccc(NC(=O)c2cc(S(=O)(=O)Nc3nnc(-c4ccccc4)c(-c4ccccc4)n3)c(SCc3ccccc3)cc2Cl)cc1
GI50 [1]: 22 µM
TGI [1]: 41.6 µM
GI50 [2]: 36100 nM
TGI [2]: > 100 µM
GI50 [3]: 25400 nM
TGI [3]: 57.4 µM
GI50 [4]: 15.9 µM
TGI [4]: 35 µM
GI50 [5]: 21.2 µM
TGI [5]: 40.7 µM
GI50 [6]: 19400 nM
TGI [6]: 33.8 µM
GI50 [7]: 21500 nM
TGI [7]: 50.7 µM
GI50 [8]: 25100 nM
TGI [8]: 55.4 µM

COc1cc(-c2nccc3[nH]c(-c4ccc5cc[nH]c5c4)nc23)cc(OC)c1OC
GI50 [1]: < 0.01 µM
TGI [1]: 5.66 µM
GI50 [9]: < 10 nM
TGI [9]: < 0.01 µM
GI50 [2]: < 10 nM
TGI [2]: 2.67 µM
GI50 [3]: < 10 nM
TGI [3]: 10.3 µM
GI50 [5]: < 0.01 µM
TGI [5]: 11.2 µM
GI50 [6]: 1300 nM
TGI [6]: 12.1 µM
GI50 [7]: < 10 nM
TGI [7]: 1.5 µM
GI50 [8]: < 10 nM
TGI [8]: 1.6 µM
GI50 [10]: < 10 nM
TGI [10]: 1.43 µM

CC1NOC(=O)C1N=Nc1ccc(Cl)cc1Cl (stereo unspecified)
TGI [1]: 77.2 µM
TGI [9]: > 100 µM
TGI [2]: > 100 µM
TGI [5]: 60.9 µM
TGI [6]: > 100 µM
TGI [7]: 32.6 µM
TGI [8]: 21.2 µM
TGI [10]: 80.4 µM

COc1ccc(-c2cc(/C=C/C(=O)c3ccc(N)cc3)[nH]n2)cc1OC
GI50 [1]: 4.86 µM
TGI [1]: 16.8 µM
GI50 [9]: 1730 nM
TGI [9]: 3.53 µM
GI50 [2]: 2800 nM
TGI [2]: 9.67 µM
GI50 [3]: 6580 nM
TGI [3]: > 100 µM
GI50 [4]: 2.53 µM
TGI [4]: 7.23 µM
GI50 [6]: 2620 nM
TGI [6]: 7.94 µM
GI50 [7]: 1680 nM
TGI [7]: 3.35 µM
GI50 [8]: 2500 nM
TGI [8]: 6.94 µM
GI50 [10]: 2020 nM
TGI [10]: 3.83 µM

C[C@H](C(=O)O)C(=O)NC(=O)N(Cc1ccccc1)N=O
TGI [1]: > 100 µM
TGI [9]: > 100 µM
TGI [2]: > 100 µM
TGI [5]: > 100 µM
TGI [6]: > 100 µM
TGI [7]: > 100 µM
TGI [8]: > 100 µM
TGI [10]: > 100 µM

CC(=O)OCC(=O)[C@@]1(O)CC[C@H]2[C@@H]3C[C@H](C)C4=CC(=O)C=C[C@]4(C)[C@@]3(F)[C@@H](O)C[C@@]21C
TGI [1]: > 100 µM
TGI [9]: > 100 µM
TGI [2]: > 100 µM
TGI [5]: > 100 µM
TGI [6]: > 100 µM
TGI [7]: > 100 µM
TGI [8]: > 100 µM
TGI [10]: > 100 µM

OC(c1ccccc1Br)(c1ccccc1Br)C(F)(F)F
TGI [1]: > 100 µM
TGI [9]: > 100 µM
TGI [2]: 52.8 µM
TGI [5]: > 100 µM
TGI [6]: 70 µM
TGI [7]: 30.9 µM
TGI [8]: 36.2 µM
TGI [10]: 6.58 µM

O=C(CCCC(=O)Nc1ccc(Cl)cc1Cl)CC(=O)c1ccc2ccccc2c1
TGI [1]: > 100 µM
TGI [9]: > 100 µM
TGI [2]: > 100 µM
TGI [5]: > 100 µM
TGI [6]: > 100 µM
TGI [7]: > 100 µM
TGI [8]: > 100 µM
TGI [10]: > 100 µM

COc1cc(OC)c(OC)cc1/C=C/c1nc2ccccc2s1
TGI [1]: > 100 µM
TGI [9]: > 100 µM
TGI [2]: > 100 µM
TGI [3]: > 100 µM
TGI [4]: 15.1 µM
TGI [6]: > 100 µM
TGI [7]: > 100 µM
TGI [8]: > 100 µM
TGI [10]: > 100 µM

N#CC1CC(c2ccccc2)Nc2cc(Cl)ccc2N1 (stereo unspecified)
TGI [1]: > 100 µM
TGI [9]: > 100 µM
TGI [2]: > 100 µM
TGI [5]: > 100 µM
TGI [6]: > 100 µM
TGI [7]: > 100 µM
TGI [8]: > 100 µM
TGI [10]: > 100 µM

c1ccc(C(c2ccccc2)c2ccccn2)cc1
TGI [1]: > 100 µM
TGI [9]: > 100 µM
TGI [2]: > 100 µM
TGI [5]: > 100 µM
TGI [6]: > 100 µM
TGI [7]: > 100 µM
TGI [8]: > 100 µM
TGI [10]: > 100 µM

O=C1NC(=O)C2C(=O)NC(=O)C1C2Cc1ccco1 (stereo unspecified)
TGI [1]: > 100 µM
TGI [9]: > 100 µM
TGI [5]: > 100 µM
TGI [6]: > 100 µM
TGI [7]: > 100 µM
TGI [8]: > 100 µM
TGI [10]: > 100 µM

CCOC(=O)C1(C)CCC(C(C(=O)O)C(=O)O)CC1=O (stereo unspecified)
TGI [1]: > 100 µM
TGI [9]: > 100 µM
TGI [2]: > 100 µM
TGI [5]: > 100 µM
TGI [6]: > 100 µM
TGI [7]: > 100 µM
TGI [8]: > 100 µM
TGI [10]: > 100 µM

O=NN(CCCl)C(=O)NC1CCC(CC(=O)O)CC1 (stereo unspecified)
TGI [1]: > 100 µM
TGI [9]: > 100 µM
TGI [2]: > 100 µM
TGI [5]: > 100 µM
TGI [6]: > 100 µM
TGI [7]: > 100 µM
TGI [8]: > 100 µM
TGI [10]: > 100 µM

C(=Nc1nc(SCc2ccccc2)nc2[nH]ncc12)c1cccs1
GI50 [1]: > 100 µM
TGI [1]: > 100 µM
GI50 [9]: 24800 nM
TGI [9]: > 100 µM
GI50 [2]: > 100000 nM
TGI [2]: > 100 µM
GI50 [4]: 41.6 µM
TGI [4]: > 100 µM
GI50 [5]: 29.8 µM
TGI [5]: > 100 µM
GI50 [6]: > 100000 nM
TGI [6]: > 100 µM
GI50 [7]: 36700 nM
TGI [7]: > 100 µM
GI50 [8]: 47200 nM
TGI [8]: > 100 µM
GI50 [10]: 37700 nM
TGI [10]: > 100 µM

Cc1cc(Cl)nc(N(CCNc2ccnc3cc(Cl)ccc23)Cc2ccco2)n1
GI50 [1]: 2.56 µM
TGI [1]: 7.44 µM
GI50 [9]: 1870 nM
TGI [9]: 3.48 µM
GI50 [2]: 2040 nM
TGI [2]: 4.79 µM
GI50 [3]: 2270 nM
TGI [3]: 6.32 µM
GI50 [4]: 1.76 µM
TGI [4]: 3.4 µM
GI50 [6]: 2720 nM
TGI [6]: 8.11 µM
GI50 [7]: 2010 nM
TGI [7]: 4.67 µM
GI50 [8]: 1850 nM
TGI [8]: 4.45 µM
GI50 [10]: 2030 nM
TGI [10]: 4.22 µM

COC(=O)C1=C(C(=O)OC)C2(c3ccccc3)OC1(c1ccccc1)c1cc3ccccc3cc12
TGI [1]: 24.4 µM
TGI [9]: 3.03 µM
TGI [2]: 27.1 µM
TGI [5]: 2.83 µM
TGI [6]: 3.53 µM
TGI [7]: 3.97 µM
TGI [8]: 3.51 µM
TGI [10]: 3.7 µM

CC(=O)[CH-]C(=O)c1ccccc1.[C-]#[O+].[C-]#[O+].[Ir]
GI50 [1]: > 100 µM
TGI [1]: > 100 µM
GI50 [9]: > 100000 nM
TGI [9]: > 100 µM
GI50 [5]: > 100 µM
TGI [5]: > 100 µM
GI50 [6]: > 100000 nM
TGI [6]: > 100 µM
GI50 [7]: > 10000 nM
TGI [7]: > 10 µM
GI50 [8]: > 100000 nM
TGI [8]: > 100 µM
GI50 [10]: > 100000 nM
TGI [10]: > 100 µM

COc1ccccc1CNCCN1C(=O)c2ccc3c4c(ccc(c24)C1=O)C(=O)N(CCNCc1ccccc1OC)C3=O
GI50 [1]: 1.55 µM
TGI [1]: 3.15 µM
GI50 [9]: 553 nM
TGI [9]: 1.06 µM
GI50 [2]: 221 nM
TGI [2]: 0.603 µM
GI50 [3]: 1170 nM
TGI [3]: 4.88 µM
GI50 [5]: 1.64 µM
TGI [5]: 5.26 µM
GI50 [6]: 680 nM
TGI [6]: 3.34 µM
GI50 [7]: 165 nM
TGI [7]: 0.35 µM
GI50 [8]: 235 nM
TGI [8]: 0.591 µM
GI50 [10]: 182 nM
TGI [10]: 0.354 µM
